Here are results for 18 molecules from patent EP4755888A1 (ILAb Co., Ltd., priority 2023, dated 2025).

Bounds are passed on as bounds.

The target of this test is PD-1/PD-L1 (Homo sapiens, UniProt Q9NZQ7). Description: TR-FRET PD-1/PD-L1 binding inhibition at the molecular level (free proteins). The conditions noted are these: Tag1-PD-L1 and Tag2-PD-1 proteins, twelve concentrations from 200 nM, 2 hours at room temperature, read-out: FRET assay (IC50). The method, then: In order to evaluate the inhibitory activity of the compounds synthesized according to the above Preparation Examples against PD-1/PD-L1 molecules in a free protein state,a TR-FRET (Time-Resolved Fluorescence Energy Transfer) experimetn was performed as described below.
Chain of PD-1/PD-L1 (Q9NZQ7 19-238 limits assumed): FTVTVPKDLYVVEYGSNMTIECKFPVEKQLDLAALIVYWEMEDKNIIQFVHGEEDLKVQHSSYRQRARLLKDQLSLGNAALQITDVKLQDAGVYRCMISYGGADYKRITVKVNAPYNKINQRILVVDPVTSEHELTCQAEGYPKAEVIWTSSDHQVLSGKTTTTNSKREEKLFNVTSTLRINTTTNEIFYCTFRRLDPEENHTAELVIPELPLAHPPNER
Specifically, the compounds were prepared in a 96-well plate by serial dilution starting from 200 nM with 1/2 dilutions to obtain a total of twelve concentrations, and 2 µL of each compound solution was added to a 384-well plate. Thereafter, Tag1-PD-L1 protein and Tag2-PD-1 protein were each prepared at a 1x concentration, mixed at a ratio of 1:1, and 8 µL of the mixed solution was added to each well of the 384-well plate containing the compounds. Anti-Tag1 Eu Cryptate reagent and Anti-Tag2 XL665 antibody were each prepared at a 1* concentration, mixed at a ratio of 1:1, and 10 µL of the mixed solution was added to each well of the 384-well plate containing the compounds and proteins, followed by incubation at room temperature for 2 hours. Upon completion of the reaction, fluorescence signals at wavelengths of 620 nm and 665 nm were measured using a microplate reader.
Turning to `Cn1c(C(=O)Nc2cccc(-c3cccc(NC(=O)c4cc5n(n4)CCC[C@@H]5N4CC[C@@H](C(=O)O)C4)c3Cl)c2Cl)nc2c1CCN(CCC13CCC(C(=O)O)(CC1)C3)C2` [Compound 307, (R)-1-((S)-2-((3'-(5-(2-(4-carboxybicyclo[2.2.1]heptan-1-yl)ethyl)-1-methyl-4,5,6,7-tetrahydro-1H-imidazo[4,5-c]pyridine-2-carboxamido)-2,2'-dichloro-[1,1'-biphenyl]-3-yl)carbamoyl)-4,5,6,7-tetrahydropyrazolo[1,5-a]pyridin-4-yl)pyrrolidine-3-carboxylic acid], the half-maximal inhibitory concentration (IC50) was < 0.01 µM.
`CS(=O)(=O)NCCNC1CCCn2nc(C(=O)Nc3cccc(-c4cccc(Nc5nccc6cc(CN7CC[C@@H](O)C7)cnc56)c4Cl)c3Cl)cc21` (stereo partly drawn) [Compound 235, N-(2,2'-dichloro-3'-((3-(((R)-3-hydroxypyrrolidin-1-yl)methyl)-1,7-naphthyridin-8-yl)amino)-[1,1'-biphenyl]-3-yl)-4-((2-(methylsulfonamido)ethyl)amino)-4,5,6,7-tetrahydropyrazolo[1,5-a]pyridine-2-carboxamide]: the IC50 lay in the range of 0.01 to 0.1 µM.
With `Cc1c(NC(=O)c2ccc(CN3CC[C@@H](O)C3)cn2)cccc1-c1cccc(NC(=O)c2cc3n(n2)CCC[C@@H]3N2CCCC[C@@H]2CO)c1C` [Compound 309, (S)-4-((R)-2-(hydroxymethyl)piperidin-1-yl)-N-(3'-(5-(((R)-3-hydroxypyrrolidin-1-yl)methyl)picolinamido)-2,2'-dimethyl-[1,1'-biphenyl]-3-yl)-4,5,6,7-tetrahydropyrazolo[1,5-a]pyridine-2-carboxamide] the figure was < 0.01 µM; with `Cc1c(NC(=O)c2cc3n(n2)CCCC3NCCO)cccc1-c1cccc(NC(=O)c2nc3c(n2C)CCN(CCC24CCC(C(=O)O)(CC2)C4)C3)c1C` (stereo not drawn) [Compound 48, 4-(2-(2-((3'-(4-((2-hydroxyethyl)amino)-4,5,6,7-tetrahydropyrazolo[1,5-a]pyridine-2-carboxamido)-2,2'-dimethyl-[1,1'-biphenyl]-3-yl)carbamoyl)-1-methyl-6,7-dihydro-1H-imidazo[4,5-c]pyridin-5(4H)-yl)ethyl)bicyclo[2.2.1]heptane-1-carboxylic acid], < 0.01 µM; with `O=C(O)[C@@H]1CCN(C2CCCn3nc(-c4cccc(-c5cccc(Nc6nccc7cc(CN8CC[C@@H](O)C8)cnc67)c5Cl)c4Cl)cc32)C1` (stereo partly drawn) [Compound 184, (3R)-1-(2-(2,2'-dichloro-3'-((3-(((R)-3-hydroxypyrrolidin-1-yl)methyl)-1,7-naphthyridin-8-yl)amino)-[1,1'-biphenyl]-3-yl)-4,5,6,7-tetrahydropyrazolo[1,5-a]pyridin-4-yl)pyrrolidine-3-carboxylic acid], < 0.01 µM.
With `Cc1c(Nc2nccc3cc(CN4CC[C@@H](O)C4)cnc23)cccc1-c1cccc(NC(=O)c2cc3n(n2)CCCC3O)c1Cl` (stereo partly drawn) [Compound 36, N-(2-chloro-3'-((3-(((R)-3-hydroxypyrrolidin-1-yl)methyl)-1,7-naphthyridin-8-yl)amino)-2'-methyl-[1,1'-biphenyl]-3-yl)-4-hydroxy-4,5,6,7-tetrahydropyrazolo[1,5-a]pyridine-2-carboxamide] the figure was 0.01 to 0.1 µM; with `O=C(Nc1cccc(-c2cccc(Nc3nc(C(F)F)nc4cc(CN5CC(F)(F)C5)cnc34)c2Cl)c1Cl)c1cc2n(n1)CCC[C@@H]2N1CCC(O)CC1` [Compound 271, (S)-N-(2,2'-dichloro-3'-((7-((3,3-difluoroazetidin-1-yl)methyl)-2-(difluoromethyl)pyrido[3,2-d]pyrimidin-4-yl)amino)-[1,1'-biphenyl]-3-yl)-4-(4-hydroxypiperidin-1-yl)-4,5,6,7-tetrahydropyrazolo[1,5-a]pyridine-2-carboxamide], 0.01 to 0.1 µM.
With `COCCNC1CCCn2nc(C(=O)Nc3cccc(-c4cccc(Nc5nccc6cc(CN7CC[C@@H](O)C7)cnc56)c4Cl)c3Cl)cc21` (stereo partly drawn) [Compound 234, N-(2,2'-dichloro-3'-((3-(((R)-3-hydroxypyrrolidin-1-yl)methyl)-1,7-naphthyridin-8-yl)amino)-[1,1'-biphenyl]-3-yl)-4-((2-methoxyethyl)amino)-4,5,6,7-tetrahydropyrazolo[1,5-a]pyridine-2-carboxamide] the figure was 0.01 to 0.1 µM; with `CN[C@@H]1CCCn2nc(C(=O)Nc3cccc(-c4cccc(NC(=O)c5ccc(CN6CC[C@@H](O)C6)cn5)c4Cl)c3Cl)cc21` [Compound 351, (R)-N-(2,2'-dichloro-3'-(5-(((R)-3-hydroxypyrrolidin-1-yl)methyl)picolinamido)-[1,1'-biphenyl]-3-yl)-4-(methylamino)-4,5,6,7-tetrahydropyrazolo[1,5-a]pyridine-2-carboxamide], 0.01 to 0.1 µM; with `CC(C)(N[C@@H]1CCCn2nc(C(=O)Nc3cccc(-c4cccc(Nc5nc(C(F)F)nc6cc(CN7CC[C@@H](O)C7)cnc56)c4Cl)c3Cl)cc21)C(=O)O` [Compound 259, 2-(((R)-2-((2,2'-dichloro-3'-((2-(difluoromethyl)-7-(((R)-3-hydroxypyrrolidin-1-yl)methyl)pyrido[3,2-d]pyrimidin-4-yl)amino)-[1,1'-biphenyl]-3-yl)carbamoyl)-4,5,6,7-tetrahydropyrazolo[1,5-a]pyridin-4-yl)amino)-2-methylpropanoic acid], 0.01 to 0.1 µM.
As for `CC(=O)N1CC2(C1)CN(C1CCCn3nc(C(=O)Nc4cccc(-c5cccc(Nc6nccc7cc(CN8CC[C@@H](O)C8)cnc67)c5Cl)c4Cl)cc31)C2` (stereo partly drawn) [Compound 236, 4-(6-acetyl-2,6-diazaspiro[3.3]heptan-2-yl)-N-(2,2'-dichloro-3'-((3-(((R)-3-hydroxypyrrolidin-1-yl)methyl)-1,7-naphthyridin-8-yl)amino)-[1,1'-biphenyl]-3-yl)-4,5,6,7-tetrahydropyrazolo[1,5-a]pyridine-2-carboxamide], the half-maximal inhibitory concentration (IC50) is 0.01 to 0.1 µM.
With `Cc1c(NC(=O)c2cc3n(n2)CCCC3N2CC[C@@H](O)C2)cccc1-c1cccc(NC(=O)c2nc3c(n2C)CCN(CCC24CCC(C(=O)O)(CC2)C4)C3)c1C` (stereo partly drawn) [Compound 47, 4-(2-(2-((3'-(4-((R)-3-hydroxypyrrolidin-1-yl)-4,5,6,7-tetrahydropyrazolo[1,5-a]pyridine-2-carboxamido)-2,2'-dimethyl-[1,1'-biphenyl]-3-yl)carbamoyl)-1-methyl-6,7-dihydro-1H-imidazo[4,5-c]pyridin-5(4H)-yl)ethyl)bicyclo[2.2.1]heptane-1-carboxylic acid] the figure was < 0.01 µM.
With `CC(C)(O)C1CN(C2CCCn3nc(C(=O)Nc4cccc(-c5cccc(Nc6nccc7cc(CN8CC[C@@H](O)C8)cnc67)c5Cl)c4Cl)cc32)C1` (stereo partly drawn) [Compound 237, N-(2,2'-dichloro-3'-((3-(((R)-3-hydroxypyrrolidin-1-yl)methyl)-1,7-naphthyridin-8-yl)amino)-[1,1'-biphenyl]-3-yl)-4-(3-(2-hydroxypropan-2-yl)azetidin-1-yl)-4,5,6,7-tetrahydropyrazolo[1,5-a]pyridine-2-carboxamide] the figure was 0.01 to 0.1 µM; with `O=C(Nc1cccc(-c2cccc(Nc3nc(C(F)(F)F)nc4cc(CN5CC[C@@H](O)C5)cnc34)c2Cl)c1Cl)c1cc2n(n1)CCC[C@@H]2N1CCC(C(=O)O)CC1` [Compound 336, 1-((S)-2-((2,2'-dichloro-3'-((7-(((R)-3-hydroxypyrrolidin-1-yl)methyl)-2-(trifluoromethyl)pyrido[3,2-d]pyrimidin-4-yl)amino)-[1,1'-biphenyl]-3-yl)carbamoyl)-4,5,6,7-tetrahydropyrazolo[1,5-a]pyridin-4-yl)piperidine-4-carboxylic acid], 0.01 to 0.1 µM.
With `COc1cc(-c2cccc(-c3cccc(NC(=O)c4cc5n(n4)CCCC5O)c3C)c2C)cc(F)c1CNC[C@@H]1CCC(=O)N1` (stereo partly drawn) [Compound 112, N-(3"-fluoro-5"-methoxy-2,2'-dimethyl-4"-(((((S)-5-oxopyrrolidin-2-yl)methyl)amino)methyl)-[1,1':3',1"-terphenyl]-3-yl)-4-hydroxy-4,5,6,7-tetrahydropyrazolo[1,5-a]pyridine-2-carboxamide] the figure was < 0.01 µM; with `O=C(Nc1cccc(-c2cccc(Nc3nc(C(F)(F)F)nc4cccnc34)c2Cl)c1Cl)c1cc2n(n1)CCC[C@@H]2N1CCC(O)CC1` [Compound 303, (S)-N-(2,2'-dichloro-3'-((2-(trifluoromethyl)pyrido[3,2-d]pyrimidin-4-yl)amino)-[1,1'-biphenyl]-3-yl)-4-(4-hydroxypiperidin-1-yl)-4,5,6,7-tetrahydropyrazolo[1,5-a]pyridine-2-carboxamide], 0.01 to 0.1 µM; with `O=C(O)CNC1CCCn2nc(C(=O)Nc3cccc(-c4cccc(NC(=O)c5nc6c(s5)CN(CCF)CC6)c4Cl)c3Cl)cc21` (stereo not drawn) [Compound 150-2, 2-((2-((2,2'-dichloro-3'-(5-(2-fluoroethyl)-4,5,6,7-tetrahydrothiazolo[5,4-c]pyridine-2-carboxamido)-[1,1'-biphenyl]-3-yl)carbamoyl)-4,5,6,7-tetrahydropyrazolo[1,5-a]pyridin-4-yl)amino)acetic acid], < 0.01 µM.
For `Cc1c(Nc2nccc3cc(CN4CC[C@@H](O)C4)cnc23)cccc1-c1cccc(-c2cc3n(n2)CCCC3N2CC[C@@H](C(=O)O)C2)c1C` (stereo partly drawn) [Compound 178, (3R)-1-(2-(3'-((3-(((R)-3-hydroxypyrrolidin-1-yl)methyl)-1,7-naphthyridin-8-yl)amino)-2,2'-dimethyl-[1,1'-biphenyl]-3-yl)-4,5,6,7-tetrahydropyrazolo[1,5-a]pyridin-4-yl)pyrrolidine-3-carboxylic acid], the 50% inhibitory concentration (IC50) was < 0.01 µM.
